One test addresses D(2) dopamine receptor (Homo sapiens, UniProt P14416). Description: Binding affinity against cloned human Dopamine receptor D2 (long) using [125I]iodosulpiride as radioligand.
The target of the next test is T1, D(4) dopamine receptor (Homo sapiens, UniProt P21917).
T1 sequence (P21917 whole entry): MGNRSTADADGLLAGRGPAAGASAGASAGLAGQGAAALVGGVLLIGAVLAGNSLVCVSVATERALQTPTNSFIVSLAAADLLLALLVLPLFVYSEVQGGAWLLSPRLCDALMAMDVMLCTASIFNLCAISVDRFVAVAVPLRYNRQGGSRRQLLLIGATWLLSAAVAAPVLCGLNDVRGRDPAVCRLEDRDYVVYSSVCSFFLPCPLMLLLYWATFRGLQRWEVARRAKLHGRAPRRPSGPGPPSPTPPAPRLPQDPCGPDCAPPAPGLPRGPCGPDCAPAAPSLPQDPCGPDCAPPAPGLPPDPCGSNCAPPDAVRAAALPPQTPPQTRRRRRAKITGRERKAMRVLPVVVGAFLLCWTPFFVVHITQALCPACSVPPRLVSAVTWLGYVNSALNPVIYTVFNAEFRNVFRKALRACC
In words: Binding affinity against cloned human Dopamine receptor D4 using [3H]nemonapride as radioligand.

For test [1], the target named is Dopamine receptors; D2 & D4 (Homo sapiens) (UniProt P14416+P21917). Description: Selectivity ratio for binding affinity between D4 and D2 receptor. It is filed as protein assay.
Dopamine receptors; D2 & D4 (Homo sapiens), sequence (P14416 whole entry, looked up, one chain of several): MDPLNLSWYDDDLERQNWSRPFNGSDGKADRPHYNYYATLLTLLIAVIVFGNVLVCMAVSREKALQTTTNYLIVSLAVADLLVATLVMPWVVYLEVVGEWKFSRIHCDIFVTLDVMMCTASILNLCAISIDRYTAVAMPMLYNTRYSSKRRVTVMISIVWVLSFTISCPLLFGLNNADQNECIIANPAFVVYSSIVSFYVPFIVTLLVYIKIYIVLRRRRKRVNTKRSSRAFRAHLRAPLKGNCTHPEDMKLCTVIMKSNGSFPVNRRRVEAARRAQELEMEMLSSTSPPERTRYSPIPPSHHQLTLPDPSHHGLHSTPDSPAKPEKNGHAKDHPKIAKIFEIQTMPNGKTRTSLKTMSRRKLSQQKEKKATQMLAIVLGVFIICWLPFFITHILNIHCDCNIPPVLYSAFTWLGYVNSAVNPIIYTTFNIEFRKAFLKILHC

We go through ten compounds from ChEMBL document CHEMBL1129308, “Design and synthesis of 2-naphthoate esters as selective dopamine D4 antagonists” (J Med Chem, 1996).

As a reminder, the Ki is a measure of affinity in units of concentration, obtained from inhibition or displacement.

D(2) dopamine receptor, sequence (P14416 whole entry): as the sequence (P14416 whole entry, looked up, one chain of several) above

Regarding `COc1cc2ccccc2cc1C(=O)NC1CCN(Cc2ccccc2)C1` (stereo not given), the figures for the inhibition constant Ki on D(2) dopamine receptor and on D(4) dopamine receptor were 39.8 nM and 3.98 nM, respectively. Besides, the Selectivity in test [1] worked out at 10.
Turning to `COc1cc2ccccc2cc1OCCC1CCN(Cc2ccccc2)CC1`, the Ki on D(2) dopamine receptor was 1580 nM; at D(4) dopamine receptor it was 25.1 nM. The Selectivity in test [1] stood at 60.
Take `COc1cc2ccccc2cc1C(=O)NCC1CCN(Cc2ccccc2)CC1`: the Ki at D(2) dopamine receptor was 126 nM; at D(4) dopamine receptor, 20 nM. For the same compound, the Selectivity in test [1] came to 6.
In the case of `COc1cc2ccccc2cc1OC(=O)CC1CCN(Cc2ccccc2)CC1`, the Ki at D(2) dopamine receptor is 7940 nM; at D(4) dopamine receptor, 6.31 nM. Also, in test [1], the Selectivity was 1260.
`COc1cc2ccccc2cc1COCC1CCN(Cc2ccccc2)CC1`: the Ki at D(2) dopamine receptor was 1000 nM; at D(4) dopamine receptor it was 31.6 nM. The Selectivity in test [1] came to 30.
On to `COc1cc2ccccc2cc1C(=O)OCC1CCN(Cc2ccccc2)C1` (stereo not given), for which the Ki on D(2) dopamine receptor is 10000 nM; at D(4) dopamine receptor it was 20 nM. Moreover, in test [1], the Selectivity was determined as 500.
In the case of `COc1cc2ccccc2cc1CC(=O)CC1CCN(Cc2ccccc2)CC1`, the Ki is 1260 nM at D(2) dopamine receptor and 200 nM on D(4) dopamine receptor. Moreover, the Selectivity in test [1] was determined as 6.
For `COc1cc2ccccc2cc1C(=O)OCC1CCN(Cc2ccccc2)CC1`, in that order: 3160 nM, 5.01 nM and 630.
For the compound `O=C(OCC1CCN(Cc2ccccc2)CC1)c1ccc(Cl)cc1`, the Ki at D(2) dopamine receptor was 2000 nM; at D(4) dopamine receptor, 25.1 nM. The Selectivity in test [1] was 80.
In the case of `COc1cc2ccccc2cc1C(=O)CCC1CCN(Cc2ccccc2)CC1`, the figures for the Ki on D(2) dopamine receptor and at D(4) dopamine receptor were 398 nM and 31.6 nM, respectively. Also, the Selectivity in test [1] amounted to 12.
